Results: PMC4298654, “In vivo formation of N-acyl-fumonisin B1” (Mycotoxin Research, 2014)

Experiment: In vivo formation of NAFB1 and NAHFB1 in rat kidney and liver (HPLC-ESI-MS/MS)
Set-up: N-acyl-derivative in tissue sample, analysis a / N-acyl-derivative in tissue sample, analysis b / N-acyl-derivative in tissue sample, mean: unit not given here
Conditions: 5 days
Excerpt: The study protocol was approved by the Institutional Animal Care and Use Committee, Richard B. Russell Agricultural Research Center, Athens, GA. Male Sprague–Dawley rats (Harlan Industries, Indianapolis, IN, USA), 7 weeks of age at receipt, were individually housed in stainless steel, wire mesh cages in an environmentally controlled room having a 12-h light/dark cycle. Food (2019 Global Rodent Diet, Teklad, Madison, WI, USA) and fresh tap water were provided ad libitum. After a 1 week acclimation period, the animals were randomly assigned to five groups (n = 2/group) having mean weights of 215 to 216 g (weight range of all animals, 211 to 220 g). For five consecutive days, they were observed, weighed, and given an intraperitoneal injection (ip) of 0 (vehicle), 0.5, 1.0, or 2.0 mg/kg body weight FB1 (provided by R. Eppley, US FDA), 1.0 mg/kg body weight HFB1 (positive control) (Voss et al. [2009]), or vehicle (0.9 % physiological saline). These doses corresponded to 0.69, 1.38, and 2.77 μmol FB1/kg body weight and 2.47 μmol/kg body weight HFB1 per day. In order to compare the effects of FB1 and HFB1, dosages will be expressed as molar concentrations and, on this basis, the high dose of FB1 is roughly equivalent to that of the positive control dose of HFB1. Dosing solutions were sterile filtered and administered at a volume rate of 10 ml/kg body weight. The animals were fasted overnight prior to administration of the final dose. The rats were euthanized (CO2 inhalation and exsanguination) 60 to 90 min following the final dose administration and examined by necropsy. The kidney and liver specimens were fixed in 10 % neutral buffered formalin, processed, and microscopically evaluated without knowledge of the animal’s identity or treatment group. Three representative liver and kidney specimens (100 mg each) were also collected, immediately frozen, and stored (−80 °C) until processed, at which time the tissues were thawed and homogenized in distilled/deionized water (1 ml water/100 mg tissue). The homogenates were lyophilized before they were shipped by overnight courier for the analysis of fumonisin metabolites and sphingolipids.
Lyophilized liver and kidney tissues (100 mg wet weight equivalents) were processed for the quantification of FB1, HFB1, NAFB1, NAHFB1, and sphingolipids. Preparation of the tissue samples was performed according to a previously published method (Harrer et al. [2013]). For the quantification of FB1 and HFB1, a d6-labeled derivative of FB1 (FB1-d6) was used as the internal standard. Synthetic derivatives with a heptadecanoic fatty acid (C17:0) residue were used as internal standards for the quantification of N-acyl-fumonisins and ceramides (N-C17:0-FB1, N-C17:0-HFB1, and N-C17:0-ceramide). The sphingoid bases and their phosphate derivatives were quantified using synthetic derivatives with a C17-acyl-backbone: sphingosine (C17:1), sphingosine-1-phosphate (C17:1), sphinganine (C17:0), sphinganine-1-phosphate (C17:0) as internal standards. The standards were dissolved in methanol:chloroform (2:1, v/v) and then mixed with the tissue samples. The samples spiked with internal standard were kept at room temperature for 30 min before being processed further. The internal standard-spiked samples were first extracted with ethyl acetate, isopropanol, and water (60:30:10, v/v/v) and a second time using methanol, chloroform, and water (60:30:10, v/v/v). The extracts were combined, the solvents removed by evaporation, and the dried samples stored at−80 °C till analyzed.
For the analysis, the samples were reconstituted in a mixture of water, methanol, and tetrahydrofurane (60:24:16, v/v/v). The NAFB1 and NAHFB1 derivatives having the following fatty acyl chain lengths were quantified by HPLC-MS/MS: C16:0, C18:0, C20:0, C22:0, C24:0, C26:0. Furthermore, we also quantified the unsaturated derivatives C24:1 and C26:1. The results are given as the sum of all N-acyl derivatives of FB1 or HFB1. […]

[1] = Kidney, treatment FB1 0,5 mg/kg BW ip
[2] = Kidney, treatment FB1 1 mg/kg BW ip
[3] = Kidney, treatment FB1 2 mg/kg BW ip
[4] = Kidney, treatment HFB1 1 mg/kg BW ip
[5] = Liver, treatment FB1 0,5 mg/kg BW ip
[6] = Liver, treatment FB1 1 mg/kg BW ip
[7] = Liver, treatment FB1 2 mg/kg BW ip
[8] = Liver, treatment HFB1 1 mg/kg BW ip

Row | SMILES | N-acyl-derivative in tissue sample, analysis a [2] | N-acyl-derivative in tissue sample, analysis b [2] | N-acyl-derivative in tissue sample, mean [2] | N-acyl-derivative in tissue sample, analysis a [3] | N-acyl-derivative in tissue sample, analysis b [3] | N-acyl-derivative in tissue sample, mean [3] | N-acyl-derivative in tissue sample, analysis a [4] | N-acyl-derivative in tissue sample, analysis b [4] | N-acyl-derivative in tissue sample, mean [4] | N-acyl-derivative in tissue sample, analysis a [5] | N-acyl-derivative in tissue sample, analysis b [5] | N-acyl-derivative in tissue sample, mean [5] | N-acyl-derivative in tissue sample, analysis a [6] | N-acyl-derivative in tissue sample, analysis b [6] | N-acyl-derivative in tissue sample, mean [6] | N-acyl-derivative in tissue sample, analysis a [7] | N-acyl-derivative in tissue sample, analysis b [7] | N-acyl-derivative in tissue sample, mean [7] | N-acyl-derivative in tissue sample, analysis a [8] | N-acyl-derivative in tissue sample, analysis b [8] | other results
1 | CCCCCCCCCCCCCCCC(=O)N[C@@H](C)[C@@H](O)C[C@H](O)CCCC[C@@H](O)C[C@H](C)C[C@H](O)[C@H](O)[C@H](C)CCCC [HFB1C16:0] | 0,2 | 0,1 | 0,2 | 0,3 | 0,5 | 0,4 | 22,7 | 37,3 | 30,0 | 0,3 | 0,4 | 0,3 | 0,0 | 0,4 | 0,2 | 0,0 | 0,3 | 0,1 | 34,9 | 44,3 | N-acyl-derivative in tissue sample, analysis a [1]: 0,0; N-acyl-derivative in tissue sample, analysis b [1]: 0,2; N-acyl-derivative in tissue sample, mean [1]: 0,1; N-acyl-derivative in tissue sample, mean [8]: 39,6
2 | CCCCCCCCCCCCCCCCCC(=O)N[C@@H](C)[C@@H](O)C[C@H](O)CCCC[C@@H](O)C[C@H](C)C[C@H](O)[C@H](O)[C@H](C)CCCC [HFB1C18:0] | 0,1 | 0,0 | 0,1 | 0,0 | 0,1 | 0,1 | 2,6 | 1,8 | 2,2 | 0,3 | 0,1 | 0,2 | 0,0 | 0,0 | 0,0 | 0,0 | 0,0 | 0,0 | 1,5 | 2,0 | N-acyl-derivative in tissue sample, analysis a [1]: 0,1; N-acyl-derivative in tissue sample, analysis b [1]: 0,2; N-acyl-derivative in tissue sample, mean [1]: 0,2; N-acyl-derivative in tissue sample, mean [8]: 1,8
3 | CCCCCCCCCCCCCCCCCCCC(=O)N[C@@H](C)[C@@H](O)C[C@H](O)CCCC[C@@H](O)C[C@H](C)C[C@H](O)[C@H](O)[C@H](C)CCCC [HFB1C20:0] | 0,0 | 0,1 | 0,1 | 0,0 | 0,0 | 0,0 | 3,1 | 0,6 | 1,8 | 0,0 | 0,2 | 0,1 | 0,2 | 0,1 | 0,2 | 0,0 | 0,0 | 0,0 | 8,9 | 13,1 | N-acyl-derivative in tissue sample, analysis a [1]: 0,0; N-acyl-derivative in tissue sample, analysis b [1]: 0,0; N-acyl-derivative in tissue sample, mean [1]: 0,0; N-acyl-derivative in tissue sample, mean [8]: 11,0
4 | CCCCCCCCCCCCCCCCCCCCCC(=O)N[C@@H](C)[C@@H](O)C[C@H](O)CCCC[C@@H](O)C[C@H](C)C[C@H](O)[C@H](O)[C@H](C)CCCC [HFB1C22:0] | 0,0 | 0,0 | 0,0 | 0,0 | 0,0 | 0,0 | 1,5 | 4,3 | 2,9 | 0,0 | 0,0 | 0,0 | 0,0 | 0,0 | 0,0 | 0,0 | 0,0 | 0,0 | 61,0 | 45,8 | N-acyl-derivative in tissue sample, analysis a [1]: 0,0; N-acyl-derivative in tissue sample, analysis b [1]: 0,0; N-acyl-derivative in tissue sample, mean [1]: 0,0; N-acyl-derivative in tissue sample, mean [8]: 53,4
5 | CCCCCCCCCCCCCCCCCCCCCCCC(=O)N[C@@H](C)[C@@H](O)C[C@H](O)CCCC[C@@H](O)C[C@H](C)C[C@H](O)[C@H](O)[C@H](C)CCCC [HFB1C24:0] | 0,0 | 0,0 | 0,0 | 0,0 | 0,0 | 0,0 | 3,0 | 2,7 | 2,9 | 0,0 | 0,0 | 0,0 | 0,0 | 0,0 | 0,0 | 0,0 | 0,0 | 0,0 | 25,0 | 23,5 | N-acyl-derivative in tissue sample, mean [8]: 24,2
6 | CCCCCCCC/C=C\CCCCCCCCCCCCCC(=O)N[C@@H](C)[C@@H](O)C[C@H](O)CCCC[C@@H](O)C[C@H](C)C[C@H](O)[C@H](O)[C@H](C)CCCC [HFB1C24:1] | 0,4 | 0,0 | 0,2 | 0,1 | 0,0 | 0,0 | 7,9 | 10,8 | 9,3 | 0,0 | 0,0 | 0,0 | 0,0 | 0,1 | 0,1 | 0,4 | 0,0 | 0,2 | 156,0 | 140,5 | N-acyl-derivative in tissue sample, analysis a [1]: 0,0; N-acyl-derivative in tissue sample, analysis b [1]: 0,0; N-acyl-derivative in tissue sample, mean [1]: 0,0; N-acyl-derivative in tissue sample, mean [8]: 148,3
